We go through 2 compounds from patent publication US4404209A, “Analgesic mixture of nalbuphine and sulindac” (E. I. Du Pont de Nemours and Company, priority 1982, dated 1983).

The assay relates to phenyl-p-benzoquinone induced writhing in mice. The conditions noted are these: oral; for % mice blocked: 40 min. As to the method: The phenyl-p-benzoquinone induced writhing test in mice [H. Blumberg et al., Proc. Soc. […] The method simply consists of reading the % ED50 DOSE for each dose ratio on the best fit regression analysis curve from the mouse isobologram, multiplying each component by its effective species dose, and then forming the ratio of the amount of nalbuphine to sulindac. […] [E. W. Pelikan, The Pharmacologist, 1, 73 (1959).]
The mixture is sonicated at 150 watts for 1-2 minutes with an ultrasound system, then shaken for two hours at 280 oscillations/minute with 15-20 gm of glass beads. The resultant suspension contains 16 mg/ml of sulindac; all dosing suspensions are prepared by dilution of the stock suspension with the Methocel®/Tween 80® vehicle; the vehicle control is Methocel®/Tween 80®. All suspensions are prepared fresh daily.
Each mouse is used only once, then discarded.
In order to study the interaction between nalbuphine and sulindac, 5 precise dosage ratios of nalbuphine hydrochloride and sulindac are selected.

Structures are written as SMILES. Where two headings read alike, the source gives them in different places.

Consider `Oc1ccc2c3c1O[C@H]1[C@@H](O)CC[C@@]4(O)[C@@H](C2)N(CC2CCC2)CC[C@]314` [Nalbuphine, (-)-17-(cyclobutylmethyl)-4,5α-epoxymorphinan-3,6α,14-triol], for which the “% mice blocked” value (nalbuphine HCl 5.45 mg/kg, sulindac 0) is on record as 16.7%; the “% mice blocked” value (nalbuphine HCl 10.9 mg/kg, sulindac 0) is 40.0%; the “% mice blocked” value (nalbuphine HCl 21.8 mg/kg, sulindac 0) amounted to 36.7%; the “% mice blocked” value (nalbuphine HCl 43.6 mg/kg, sulindac 0) was determined as 63.3%; the “% mice blocked” value (nalbuphine HCl 87.2 mg/kg, sulindac 0) is given as 90.0%. In addition, where the note is “mouse, nalbuphine HCl dose, alone or as component of the fixed-ratio combination”, the “ED50 at 40 min, nalbuphine HCl (95% confidence limits)” value is given as 30.8 mg/kg.

On to `CC1=C(CC(=O)O)c2cc(F)ccc2/C1=C\c1ccc([S+](C)[O-])cc1` (centres unmarked) [Sulindac, (Z)-5-fluoro-2-methyl-1-{[4-(methylsulfinyl)phenyl]methylene}-1H-indene-3-acetic acid], for which the “% mice blocked” value by setting is: (nalbuphine HCl 0, sulindac 4.75 mg/kg) 20.0%; (nalbuphine HCl 0, sulindac 9.5 mg/kg) 20.0%; (nalbuphine HCl 0, sulindac 19.0 mg/kg) 46.7%; (nalbuphine HCl 0, sulindac 38.0 mg/kg) 96.7%. For the same compound, the “ED50 at 40 min, sulindac (95% confidence limits)” value (mouse, sulindac dose, alone or as component of the fixed-ratio combination) came out at 21.2 mg/kg.

A word on the ED50: it is the midpoint of the dose-response relation.
